Data: ChEMBL document CHEMBL4627375, “Monovalent protein-degraders - Insights and future perspectives” (Bioorg Med Chem Lett, 2020)

How the values were obtained:
[1] = biological target: Maternal embryonic leucine zipper kinase (Homo sapiens, UniProt Q14680); assay: Inhibition of MELK (unknown origin)
[2] = biological target: Protein phosphatase 1 regulatory subunit 15A (Homo sapiens, UniProt O75807); assay: Inhibition of amino-terminal MBP-tagged/carboxy-terminal His6-tagged human PPP1R15A (325 to 626 residues)
[3] = biological target: T1, Protein phosphatase 1 regulatory subunit 15B (Homo sapiens, UniProt Q5SWA1); assay: Inhibition of amino-terminal MBP-tagged/carboxy-terminal His6-tagged human PPP1R15B (325 to 626 residues)
T1 sequence (Q5SWA1 whole entry): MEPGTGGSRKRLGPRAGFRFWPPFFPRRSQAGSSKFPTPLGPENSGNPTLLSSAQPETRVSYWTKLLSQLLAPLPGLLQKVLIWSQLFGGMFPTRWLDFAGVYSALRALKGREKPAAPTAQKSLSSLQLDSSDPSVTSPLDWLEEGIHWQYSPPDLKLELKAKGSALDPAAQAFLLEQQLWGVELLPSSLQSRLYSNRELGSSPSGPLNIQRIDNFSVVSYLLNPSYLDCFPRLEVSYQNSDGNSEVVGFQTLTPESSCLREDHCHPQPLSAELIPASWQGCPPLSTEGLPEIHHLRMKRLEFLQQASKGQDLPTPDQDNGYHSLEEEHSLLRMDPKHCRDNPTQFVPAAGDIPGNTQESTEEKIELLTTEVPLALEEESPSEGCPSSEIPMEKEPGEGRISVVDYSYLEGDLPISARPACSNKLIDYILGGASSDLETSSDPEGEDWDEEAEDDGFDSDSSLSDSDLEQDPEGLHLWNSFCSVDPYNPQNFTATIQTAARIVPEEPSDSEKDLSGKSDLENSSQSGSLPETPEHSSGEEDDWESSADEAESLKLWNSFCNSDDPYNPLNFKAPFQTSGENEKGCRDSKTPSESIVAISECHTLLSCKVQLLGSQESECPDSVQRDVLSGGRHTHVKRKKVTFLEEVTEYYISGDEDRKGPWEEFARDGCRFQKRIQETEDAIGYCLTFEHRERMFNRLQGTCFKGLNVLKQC

[4] = biological target: T2, Protein deacetylase HDAC6 (Homo sapiens, UniProt Q9UBN7); assay: Inhibition of HDAC6 (unknown origin)
T2 sequence (Q9UBN7 whole entry): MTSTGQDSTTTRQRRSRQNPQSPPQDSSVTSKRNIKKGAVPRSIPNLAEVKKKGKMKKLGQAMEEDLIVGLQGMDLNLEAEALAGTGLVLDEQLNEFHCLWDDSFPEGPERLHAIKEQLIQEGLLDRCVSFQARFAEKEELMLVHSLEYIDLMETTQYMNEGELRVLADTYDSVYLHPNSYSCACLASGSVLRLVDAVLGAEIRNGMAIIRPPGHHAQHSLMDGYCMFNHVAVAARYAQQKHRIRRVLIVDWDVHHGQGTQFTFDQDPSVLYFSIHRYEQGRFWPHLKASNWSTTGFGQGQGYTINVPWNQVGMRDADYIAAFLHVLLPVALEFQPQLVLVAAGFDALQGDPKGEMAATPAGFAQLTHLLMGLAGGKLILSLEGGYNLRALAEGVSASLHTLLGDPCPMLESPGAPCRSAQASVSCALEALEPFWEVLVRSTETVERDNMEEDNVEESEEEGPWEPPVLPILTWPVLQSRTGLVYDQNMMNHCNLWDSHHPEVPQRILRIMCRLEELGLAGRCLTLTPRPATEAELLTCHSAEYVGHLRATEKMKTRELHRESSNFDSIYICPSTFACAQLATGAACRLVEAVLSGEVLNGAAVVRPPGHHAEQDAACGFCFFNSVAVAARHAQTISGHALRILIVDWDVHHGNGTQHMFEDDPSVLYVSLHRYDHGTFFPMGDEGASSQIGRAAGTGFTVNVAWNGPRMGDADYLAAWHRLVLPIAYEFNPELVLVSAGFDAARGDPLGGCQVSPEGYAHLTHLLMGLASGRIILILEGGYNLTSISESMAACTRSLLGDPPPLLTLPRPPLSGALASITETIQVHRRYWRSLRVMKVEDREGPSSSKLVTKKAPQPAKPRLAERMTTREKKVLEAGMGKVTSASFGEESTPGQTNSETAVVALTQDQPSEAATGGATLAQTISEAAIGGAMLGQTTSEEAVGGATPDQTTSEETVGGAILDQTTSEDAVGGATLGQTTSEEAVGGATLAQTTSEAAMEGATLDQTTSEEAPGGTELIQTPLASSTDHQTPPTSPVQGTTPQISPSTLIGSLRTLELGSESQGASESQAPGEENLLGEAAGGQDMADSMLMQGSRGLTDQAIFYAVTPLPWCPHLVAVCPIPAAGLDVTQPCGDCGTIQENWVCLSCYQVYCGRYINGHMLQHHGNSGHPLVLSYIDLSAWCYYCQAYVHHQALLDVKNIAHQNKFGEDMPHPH

Homo sapiens = organism: Homo sapiens; assay: Selectivity ratio, ratio of IC50 for HDAC6 (unknown origin) to Class 1 HDAC (unknown origin)

Chain of Maternal embryonic leucine zipper kinase (Q14680 whole entry, the tested form may be a part): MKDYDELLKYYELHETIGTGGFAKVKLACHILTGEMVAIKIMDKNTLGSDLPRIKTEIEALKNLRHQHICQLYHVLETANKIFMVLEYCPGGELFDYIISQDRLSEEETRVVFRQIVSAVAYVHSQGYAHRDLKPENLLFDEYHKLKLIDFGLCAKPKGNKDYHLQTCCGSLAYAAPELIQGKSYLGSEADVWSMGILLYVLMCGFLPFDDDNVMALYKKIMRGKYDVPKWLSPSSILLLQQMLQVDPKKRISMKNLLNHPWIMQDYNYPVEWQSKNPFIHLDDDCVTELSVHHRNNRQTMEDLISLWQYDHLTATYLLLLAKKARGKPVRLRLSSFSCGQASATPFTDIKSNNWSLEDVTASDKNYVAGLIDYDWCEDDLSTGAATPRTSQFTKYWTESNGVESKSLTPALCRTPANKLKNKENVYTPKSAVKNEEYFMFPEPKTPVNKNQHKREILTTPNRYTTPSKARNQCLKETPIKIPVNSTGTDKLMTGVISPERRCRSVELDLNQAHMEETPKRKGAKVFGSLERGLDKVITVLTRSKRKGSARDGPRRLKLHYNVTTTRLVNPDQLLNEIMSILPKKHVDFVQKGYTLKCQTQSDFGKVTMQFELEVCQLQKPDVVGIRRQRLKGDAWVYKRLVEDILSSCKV
Chain of Protein phosphatase 1 regulatory subunit 15A (O75807 whole entry, the tested form may be a part): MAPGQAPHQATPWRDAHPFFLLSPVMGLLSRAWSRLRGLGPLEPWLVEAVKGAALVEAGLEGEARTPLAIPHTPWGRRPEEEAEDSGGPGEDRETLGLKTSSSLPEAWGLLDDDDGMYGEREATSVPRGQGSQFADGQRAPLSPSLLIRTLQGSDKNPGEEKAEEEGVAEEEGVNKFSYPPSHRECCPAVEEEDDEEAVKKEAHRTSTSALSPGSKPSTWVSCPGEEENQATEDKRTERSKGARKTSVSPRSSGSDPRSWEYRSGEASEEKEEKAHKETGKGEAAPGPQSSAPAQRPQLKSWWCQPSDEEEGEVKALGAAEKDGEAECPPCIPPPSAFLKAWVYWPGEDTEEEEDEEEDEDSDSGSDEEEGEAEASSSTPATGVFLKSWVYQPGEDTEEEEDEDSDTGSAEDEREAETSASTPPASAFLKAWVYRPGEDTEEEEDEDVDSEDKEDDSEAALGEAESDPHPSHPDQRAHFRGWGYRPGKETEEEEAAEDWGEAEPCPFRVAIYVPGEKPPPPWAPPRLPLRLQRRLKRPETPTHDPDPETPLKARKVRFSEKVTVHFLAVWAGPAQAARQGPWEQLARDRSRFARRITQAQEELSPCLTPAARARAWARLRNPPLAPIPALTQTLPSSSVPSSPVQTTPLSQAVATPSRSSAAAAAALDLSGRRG

Row | IC50 [1] | IC50 [2] | IC50 [3] | IC50 [4] | Ratio IC50 (Homo sapiens) | SMILES
1 | 200 to 500 nM | – | – | – | – | CNC(=O)COc1cc2cc(Nc3nc(N4C[C@H](C)C[C@H](C)C4)ncc3Cl)ccc2n(C)c1=O
2 | 200 to 500 nM | 977 nM | 33 nM | – | – | N=C(N)N/N=C/c1cccc(Cl)c1Cl
3 | 200 to 500 nM | – | – | 4.7 nM | 200 | O=C(NO)c1ccc(Cn2c(=O)n(CCc3ccccc3)c(=O)c3ccccc32)cc1

Row | SMILES | IC50 [1] | IC50 [2] | IC50 [3] | IC50 [4] | Ratio IC50 (Homo sapiens)
4 | COc1ccc(/C=C2\SC(=S)NC2=O)cc1C#C[Si](C)(C)C | 200 to 500 nM | – | – | – | –
